One experiment has as its system K562. The experiment is described as follows: cells. It is filed as functional, cell-based. The following applies: Homo sapiens, K562, 72 h.
The next experiment in a line: cells. Type of experiment: functional, cell-based. The settings on record: Homo sapiens, DU-145, 72 h.

As a reminder, the IC50 is the point on the concentration scale where inhibition reaches its midpoint. A low value points to greater potency in that assay.

Take `Cn1c(=O)c(S(=O)(=O)c2ccccc2)cc2cnc(Nc3ccc4ncccc4c3)nc21`: the IC50 with K562 came to 100 µM; in the experiment “cells”, 50 µM.
For `Cn1c(=O)c(S(=O)(=O)c2ccc(F)cc2F)cc2cnc(Nc3ccc4[nH]ncc4c3)nc21`, in that order: 50 µM and 30 µM.
For `Cc1ccc(S(=O)(=O)c2cc3cnc(Nc4ccc5cc[nH]c5c4)nc3n(C)c2=O)cc1`, in that order: 15 µM and 15 µM.
On to `Cn1c(=O)c(S(=O)(=O)c2ccc(Cl)cc2)cc2cnc(Nc3cnc4ccccc4c3)nc21`, for which the IC50 with K562 and in the experiment “cells” was 15 µM throughout.
With `Cn1c(=O)c(S(=O)(=O)c2ccc(F)cc2F)cc2cnc(Nc3ccc4[nH]c(C(=O)O)cc4c3)nc21`, the IC50 in the experiment with K562 and in the experiment “cells” was 10 µM in each case.
For `O=c1c(S(=O)(=O)c2ccc(F)cc2F)cc2cnc(Nc3ccc4[nH]ccc4c3)nc2n1CC1CCCC1`, the figures for the IC50 in the experiment with K562 and in the experiment “cells” were 7 µM and 10 µM, respectively.
`Cn1c(=O)c(S(=O)(=O)c2ccc(F)cc2F)cc2cnc(Nc3ccc4c(c3)C(=O)C(=O)N4)nc21`: the IC50 in the experiment on K562 came out at 30 µM; in “cells”, 75 µM.
Taken in the same sequence, the figures for `Cn1c(=O)c(S(=O)(=O)c2ccc(F)cc2F)cc2cnc(NCc3ccc4[nH]ccc4c3)nc21` were 75 µM and 100 µM.
Taken in the same sequence, the figures for `O=c1[nH]c2nc(Nc3ccc4[nH]ccc4c3)ncc2cc1S(=O)(=O)c1ccc(F)cc1F` were 15 µM and 15 µM.
Regarding `Cc1ccc(S(=O)(=O)c2cc3cnc(Nc4cnc5c(c4)CC(=O)N5)nc3n(C)c2=O)cc1`, the half-maximal inhibitory concentration (IC50) in the experiment with K562 and in “cells” was 15 µM each time.
Consider `COC(=O)Cn1c(=O)c(S(=O)(=O)c2ccc(F)cc2F)cc2cnc(Nc3ccc4[nH]ccc4c3)nc21`, for which the IC50 with K562 came out at 5 µM; in “cells”, 10 µM.
`CCn1c(=O)c(S(=O)(=O)c2ccc(F)cc2F)cc2cnc(Nc3ccc4[nH]ccc4c3)nc21`: the IC50 in the experiment on K562 and in the experiment “cells” was 0.75 µM in each case.
Turning to `CCCn1c(=O)c(S(=O)(=O)c2ccc(F)cc2F)cc2cnc(Nc3ccc4[nH]ccc4c3)nc21`, the IC50 in the experiment on K562 and in “cells” was 1 µM in each case.
As for `O=c1c(S(=O)(=O)c2ccc(F)cc2F)cc2cnc(Nc3ccc4[nH]ccc4c3)nc2n1CC1CC1`, the IC50 in the experiment on K562 and in “cells” was 1 µM each time.
Regarding `Cn1c(=O)c(S(=O)(=O)c2ccccc2)cc2cnc(Nc3cnc4[nH]ccc4c3)nc21`, the IC50 in the experiment with K562 came to 5 µM; in “cells”, 1 µM.
For `Cn1c(=O)c(C(=O)Nc2ccc(F)cc2F)cc2cnc(Nc3ccc4[nH]ccc4c3)nc21`, in that order: 5 µM and 5 µM.
`Cn1c(=O)c(S(=O)(=O)c2ccc(F)cc2)cc2cnc(Nc3ccc4[nH]cnc4c3)nc21`: the half-maximal inhibitory concentration (IC50) in the experiment with K562 and in the experiment “cells” was 10 µM throughout.
On to `Cn1c(=O)c(S(=O)(=O)c2ccc(F)cc2F)cc2cnc(Nc3ccncn3)nc21`, for which the IC50 in the experiment with K562 was 30 µM; in “cells”, 50 µM.
Turning to `Cn1c(=O)c(S(=O)(=O)c2ccc(F)cc2N)cc2cnc(Nc3ccc4[nH]ccc4c3)nc21`, the results for the IC50 in the experiment with K562 and in the experiment “cells” were 2 µM and 3 µM, respectively.
In the case of `Cn1c(=O)c(S(=O)(=O)Nc2ccc(F)cc2F)cc2cnc(Nc3ccc4[nH]ccc4c3)nc21`, the IC50 in the experiment on K562 and in the experiment “cells” was 5 µM each time.
As to `Cn1c(=O)c(S(=O)(=O)c2ccc(Cl)cc2)cc2cnc(Nc3cccc4[nH]ccc34)nc21`, the IC50 with K562 and in “cells” was 5 µM in each case.
As to `Cc1cc2cc(Nc3ncc4cc(S(=O)(=O)c5ccc(F)cc5F)c(=O)n(C)c4n3)ccc2[nH]1`, the IC50 in the experiment with K562 and in the experiment “cells” was 0.75 µM each time.
`Cn1c(=O)c(S(=O)(=O)c2ccc(F)cc2F)cc2cnc(Nc3cnc4[nH]ccc4c3)nc21`: the IC50 in the experiment on K562 and in “cells” was 0.75 µM in each case.
For `Cc1ccc(S(=O)(=O)c2cc3cnc(Nc4cccc5cccnc45)nc3n(C)c2=O)cc1`, the IC50 in the experiment with K562 and in “cells” was 10 µM throughout.
With `O=c1c(S(=O)(=O)c2ccc(F)cc2F)cc2cnc(Nc3ccc4[nH]ccc4c3)nc2n1C1CCCC1`, the IC50 in the experiment with K562 and in “cells” was 5 µM throughout.
On to `Cn1c(=O)c(S(=O)(=O)c2ccc(F)cc2)cc2cnc(Nc3ccc4cc[nH]c4c3)nc21`, for which the IC50 in the experiment with K562 and in the experiment “cells” was 10 µM in each case.
In the case of `COc1ccc(S(=O)(=O)c2cc3cnc(Nc4cccc5[nH]ccc45)nc3n(C)c2=O)cc1`, the IC50 in the experiment on K562 and in “cells” was 5 µM throughout.
For `Cn1c(=O)c(S(=O)(=O)c2ccc(C(=O)O)cc2)cc2cnc(Nc3ccc4[nH]ccc4c3)nc21`, the IC50 with K562 amounted to 5 µM; in the experiment “cells” it was 10 µM.
`Cn1c(=O)c(S(=O)(=O)c2ccc(Cl)cc2)cc2cnc(Nc3ccc4[nH]ccc4c3)nc21`: the IC50 with K562 was determined as 0.1 µM; in the experiment “cells”, 0.25 µM.
For `COC(=O)Cn1ccc2cc(Nc3ncc4cc(S(=O)(=O)c5ccc(F)cc5F)c(=O)n(C)c4n3)ccc21`, the IC50 with K562 and in the experiment “cells” was 5 µM each time.
Take `Cn1c(=O)c(S(=O)(=O)c2ccc(F)cc2)cc2cnc(Nc3ccc4occc4c3)nc21`: the IC50 in the experiment on K562 and in the experiment “cells” was 5 µM throughout.
In the case of `Cn1c(=O)c(S(=O)(=O)c2ccc(F)cc2F)cc2cnc(Nc3ccc4c(c3)CC(=O)N4)nc21`, the figures for the IC50 in the experiment on K562 and in the experiment “cells” were 15 µM and 100 µM, respectively.
Turning to `Cn1c(=O)c(S(=O)(=O)c2ccccc2)cc2cnc(Nc3ccc4cc[nH]c4c3)nc21`, the IC50 in the experiment with K562 and in the experiment “cells” was 10 µM each time.
Consider `O=c1c(S(=O)(=O)c2ccc(F)cc2F)cc2cnc(Nc3ccc4[nH]ccc4c3)nc2n1C1CC1`, for which the IC50 with K562 and in “cells” was 0.5 µM in each case.
As to `Cn1c(=O)c(S(=O)(=O)c2ccc(F)cc2F)cc2cnc(Nc3ccc4cc[nH]c4c3)nc21`, the IC50 in the experiment with K562 and in “cells” was 5 µM each time.
Turning to `O=c1c(S(=O)(=O)c2ccc(F)cc2F)cc2cnc(Nc3ccc4[nH]ccc4c3)nc2n1C1CCCCC1`, the IC50 in the experiment with K562 and in the experiment “cells” was 10 µM each time.
Regarding `Cn1ccc2cc(Nc3ncc4cc(S(=O)(=O)c5ccc(Cl)cc5Cl)c(=O)n(C)c4n3)ccc21`, the IC50 with K562 and in the experiment “cells” was 0.75 µM each time.
As for `Cn1c(=O)c(S(=O)(=O)c2ccc([N+](=O)[O-])cc2F)cc2cnc(Nc3ccc4[nH]ccc4c3)nc21`, the IC50 in the experiment on K562 was 0.2 µM; in the experiment “cells”, 0.4 µM.
Taken in the same sequence, the figures for `Cn1c(=O)c(S(=O)(=O)c2ccc(N)cc2F)cc2cnc(Nc3ccc4[nH]ccc4c3)nc21` were 1.5 µM and 8 µM.
Taken in the same sequence, the figures for `Cn1c(=O)c(S(=O)(=O)c2ccc(F)cc2)cc2cnc(Nc3cnc4[nH]ccc4c3)nc21` were 0.75 µM and 0.5 µM.
As to `Cn1c(=O)c(S(=O)(=O)c2ccc(F)cc2[N+](=O)[O-])cc2cnc(Nc3ccc4[nH]ccc4c3)nc21`, the IC50 in the experiment with K562 is 0.9 µM; in “cells” it was 1.5 µM.
For `Cn1c(=O)c(S(=O)(=O)c2ccc(F)cc2F)cc2cnc(Nc3ccccn3)nc21`, in that order: 35 µM and 75 µM.
For the molecule `Cn1c(=O)c(S(=O)(=O)c2ccc(Br)cc2)cc2cnc(Nc3ccc4[nH]ccc4c3)nc21`, the IC50 with K562 and in the experiment “cells” was 5 µM in each case.
With `Cn1c(=O)c(S(=O)(=O)c2ccc(Cl)cc2Cl)cc2cnc(Nc3ccc4[nH]ccc4c3)nc21`, the IC50 in the experiment with K562 and in the experiment “cells” was 1 µM each time.
On to `COc1ccc(Nc2ncc3cc(S(=O)(=O)c4ccc(Cl)cc4)c(=O)n(C)c3n2)cc1`, for which the IC50 worked out at 15 µM in the experiment with K562 and 30 µM in the experiment “cells”.
For `Cc1ccc(S(=O)(=O)c2cc3cnc(Nc4cnc5[nH]ccc5c4)nc3n(C)c2=O)cc1`, in that order: 15 µM and 25 µM.
For `Cn1c(=O)c(S(=O)(=O)Cc2ccc(F)cc2)cc2cnc(Nc3ccc4[nH]ccc4c3)nc21`, in that order: 30 µM and 30 µM.
For `Cn1c(=O)c(S(=O)(=O)c2ccc(F)cc2F)cc2cnc(Nc3ccc4sccc4c3)nc21`, the IC50 in the experiment with K562 and in the experiment “cells” was 0.5 µM throughout.
As for `COc1ccc(Nc2ncc3cc(S(=O)(=O)c4ccc(C)cc4)c(=O)n(C)c3n2)cc1`, the values for the IC50 with K562 and in “cells” were 75 µM and 100 µM, respectively.
For `Cn1c(=O)c(S(=O)(=O)Nc2ccc(F)cc2)cc2cnc(Nc3ccc4[nH]ccc4c3)nc21`, in that order: 5 µM and 5 µM.
Regarding `Cn1c(=O)c(S(=O)(=O)c2ccc(F)cc2F)cc2cnc(Nc3ccc4occc4c3)nc21`, the IC50 in the experiment with K562 and in the experiment “cells” was 15 µM each time.
Regarding `Cc1ccc(S(=O)(=O)c2cc3cnc(Nc4cccc5[nH]ccc45)nc3n(C)c2=O)cc1`, the IC50 in the experiment with K562 came out at 5 µM; in the experiment “cells”, 10 µM.
Turning to `Cc1ccc(S(=O)(=O)c2cc3cnc(Nc4ccc5[nH]ccc5c4)nc3n(C)c2=O)cc1`, the IC50 with K562 and in the experiment “cells” was 0.75 µM throughout.
Turning to `Cn1c(=O)c(S(=O)(=O)c2ccc(F)cc2F)cc2cnc(Nc3ccc4cccc(O)c4n3)nc21`, the concentration for half-maximal inhibition (IC50) in the experiment on K562 and in the experiment “cells” was 5 µM in each case.
For `Cc1ccc(S(=O)(=O)c2cc3cnc(Nc4ccc5ncccc5c4)nc3n(C)c2=O)cc1`, the IC50 with K562 and in the experiment “cells” was 10 µM in each case.
As to `Cn1c(=O)c(C(=O)Nc2ccc(F)cc2)cc2cnc(Nc3ccc4[nH]ccc4c3)nc21`, the IC50 in the experiment on K562 and in “cells” was 5 µM throughout.
For the molecule `CN1CCN(c2ccc(Nc3ncc4cc(S(=O)(=O)c5ccc(F)cc5F)c(=O)n(C)c4n3)cc2)CC1`, the IC50 in the experiment with K562 and in “cells” was 5 µM in each case.
As for `Cn1ccc2cc(Nc3ncc4cc(S(=O)(=O)c5ccc(F)cc5F)c(=O)n(C)c4n3)ccc21`, the IC50 with K562 and in “cells” was 0.75 µM in each case.
Consider `Cn1c(=O)c(S(=O)(=O)c2ccc(Cl)cc2)cc2cnc(Nc3ccc(Cl)cc3)nc21`, for which the IC50 with K562 and in the experiment “cells” was 15 µM each time.
On to `Cn1c(=O)c(S(=O)(=O)Cc2ccc(F)cc2F)cc2cnc(Nc3ccc4[nH]ccc4c3)nc21`, for which the IC50 in the experiment on K562 and in the experiment “cells” was 1 µM throughout.
For the molecule `Cn1c(=O)c(S(=O)(=O)c2ccc(Cl)cc2)cc2cnc(Nc3cnc4[nH]ccc4c3)nc21`, the half-inhibitory concentration (IC50) in the experiment with K562 and in the experiment “cells” was 5 µM in each case.

The values above are taken from ChEMBL document CHEMBL3745707 (Bioorg Med Chem, 2016).
